# Source: US20190064177A1, “INCORPORATING COMPETITIVE BINDING INFORMATION INTO MOLECULAR ARRAY ANALYSIS TO GENERATE FUNCTION NETWORKS OF INTERACTIONS” (ARIZONA BOARD OF REGENTS ON BEHALF OF ARIZONA STATE …, priority 2017, published 2019)
# Tested on: diaphorase
# Experiment: fluorescently labeled diaphorase binding to peptide array with or without excess FAD
# Conditions: for 1 microM FAD (array fluorescence of bound diaphorase) / 1 micro no FAD (array fluorescence of bound diaphorase): 1 micromolar labeled diaphorase; for 1 microM FAD (array fluorescence of bound diaphorase) / 10 microM FAD (array fluorescence of bound diaphorase): excess FAD present; for 1 microM FAD (array fluorescence of bound diaphorase) / 1 micro no FAD (array fluorescence of bound diaphorase) / 10 microM FAD (array fluorescence of bound diaphorase) / 10 microM no FAD (array fluorescence of bound diaphorase): 65535 is detector saturation; for 10 microM FAD (array fluorescence of bound diaphorase) / 10 microM no FAD (array fluorescence of bound diaphorase): 10 micromolar labeled diaphorase; for 1 microM noFAD/FAD / 10 microM noFAD/FAD: ratio of binding without FAD to binding with FAD; for 1 microM noFAD/FAD / Meas. ratio: 1 micromolar diaphorase; for 10 microM noFAD/FAD: 10 micromolar diaphorase; for Meas. ratio: ratio without/with FAD calculated from measured binding values
# Procedure: Measurements were performed in which diaphorase was bound to an array of about 126,000 unique sequences. The sequences were chosen simply to cover sequence space. 16 of the natural 20 amino acids were used to make up these sequences with C, I, M and T omitted. The diaphorase was fluorescently labeled and each peptide sequence feature was scanned and fluorescence recorded on the array. Diaphorase bound tightly to some peptides and not at all to others. Two different concentrations of diaphorase were used, 1 and 10 micromolar, and the diaphorase was either bound in the presence of excess FAD or not. […] Indeed the Pearson correlation coefficient between w/ and w/o FAD was >0.97, which actually speaks to the reproducibility of this dataset. However, there are some differences as shown on the scatter plot of FIG. 1. When one takes a ratio of the binding without FAD and the binding with FAD, one finds the following top 30 ratios (Table 1): Note that all these sequences end with a GSG linker sequence. Because there are two concentrations, one can easily check for consistency. Note that 65535 is detector saturation, so one has to ignore those values. For this reason, the lower concentration is used most of the time. […] It appears that this was some kind of error and was ignored in subsequent analysis. A similar conclusion can be made with the 7th highest value. Looking at the sequences, RW or at least R or K followed by a nonpolar or aromatic amino acid at the N-terminus. This is interesting as FAD is negatively charged, though the adenine in FAD looks a bit like tryptophan (see FIG. 2).
Sequence,1 microM FAD (array fluorescence of bound diaphorase),1 micro no FAD (array fluorescence of bound diaphorase),10 microM FAD (array fluorescence of bound diaphorase),10 microM no FAD (array fluorescence of bound diaphorase),1 microM noFAD/FAD,10 microM noFAD/FAD,Meas. ratio
RYYPAFSGGSG [array peptide with C-terminal GSG linker],7535.25,21898,65535,65535,2.906,1,2.91
RYPWNKLYKFDGSG [array peptide with C-terminal GSG linker],3483.25,9735.75,53014.5,65535,2.795,1.236,2.80
KEAPGPRFGGSG [array peptide with C-terminal GSG linker],8281.5,1071.25,5467.5,5614.5,0.1294,1.027,0.13
RSHPKHNVGSG [array peptide with C-terminal GSG linker],3876,1953.667,12238.917,17018.417,0.504,1.391,0.50
EGFGYLFAHVGGS,,,,,,,0.78
PQKSNHFHEAQKR,,,,,,,2.41
WRVQAWRPNKVEG,,,,,,,2.43
RWRYYWKSEGSG [array peptide with C-terminal GSG linker],4093.5,11043,51412.25,65535,2.698,1.275,2.70
LKQLFLEGGSG [array peptide with C-terminal GSG linker],2474.5,1559.25,23548.25,8696.5,0.6301,0.3693,0.63
EDEGLSKFEGGSG [array peptide with C-terminal GSG linker],4165.5,560.55,1378.5,1220.25,0.1346,0.8852,0.13
YSALFGLQEDGSG [array peptide with C-terminal GSG linker],2100.75,1225.5,16872.25,8529,0.5834,0.5055,0.58
PVDFGYQLKVSGS,,,,,,,0.66
YRLNLKHPVGGSG [array peptide with C-terminal GSG linker],4146.5,12652.75,56689,65535,3.051,1.156,3.05
PRFNWKPYGGSG [array peptide with C-terminal GSG linker],,,,,,,2.44
FQFGKVVSDGSG [array peptide with C-terminal GSG linker],2470,1574.5,20187.75,12735.5,0.6374,0.6309,0.64
SVLEGYQAVFGGSG [array peptide with C-terminal GSG linker],2664.5,1341.5,21517.25,6065.25,0.5035,0.2819,0.50
RQAYLFGGSG [array peptide with C-terminal GSG linker],4477,14479.75,64033.5,65535,3.234,1.023,3.23
FYNFGYQDLEDGS,,,,,,,0.75
YRNAAWFSGGSG [array peptide with C-terminal GSG linker],2926,8372.25,43282,65535,2.861,1.514,2.86
RAQYAQYLFGGSG [array peptide with C-terminal GSG linker],3162,8721.5,55433.5,65535,2.758,1.182,2.76
KNRPYNKDLEDGSG [array peptide with C-terminal GSG linker],5147,733.25,2589.25,2522.5,0.1425,0.9742,0.14
PRYQNFGGGSG [array peptide with C-terminal GSG linker],2458,6907,36662,65535,2.81,1.788,2.81
RWYKNGGSG [array peptide with C-terminal GSG linker],3658,10176.5,46265.5,64775,2.782,1.4,2.78
